Laboratory results published in patent US8114602B2 (priority 2003, dated 2012).
Where “and” joins values, the source holds several entries; their conditions need not be identical. Identical values can stand only once. Entries after “also recorded” stand apart in the source; their conditions may differ.

Key:
GTIB [1] = assay type: binding, bovine; settings: read-out: effective dissociation constant
[2] = tested on: membranes free of GM1 and GTIB; assay type: binding
GM1 [3] = assay type: binding, bovine; set-up: Ei (effective interaction energy): unit not given here
GTIB [4] = assay type: binding, bovine
GM1 [5] = assay type: binding, bovine; settings: read-out: effective dissociation constant

Q: Which Kd (GTIB [1]) does the source give for tetanus toxin [TT] here?
A: Its Kd is ~60 nM and ~41 nM.

Q: What about the “Ei (effective interaction energy)” value [2] of the same substance?
A: The value was 2.61 ± 0.05.

Q: What about the “detection signal / binding in selectivity series” value [2] of the same substance?
A: The value was “Negative signals”.

Q: What about the “Ei (effective interaction energy)” value (GM1 [3]) of the same substance?
A: The value was 2.63 ± 0.05.

Q: And the “colloidal phase response (condensed to dispersed transition)” value (“colloidal phase response” for short) (GM1 [3])?
A: Its value is “no effect”.

Q: What about the “detection signal / binding in selectivity series” value (GM1 [3]) of the same substance?
A: Its value is “Negative signals”.

Q: What about the “colloidal phase response” value (GTIB [4]) of the same substance?
A: Its value is “triggered formation of a dispersed phase; also recorded: induces a condensed to dispersed phase transition”.

Q: What about the “detection signal / binding in selectivity series” value (GTIB [4]) of the same substance?
A: The value was “positive signal; also recorded: detected binding”.

Q: What about the “first peak in the g(r) plot” value (GTIB [4]) of the same substance?
A: The value was “noticeably absent”.

Q: Which Kd (GM1 [5]) does the source give for Cholera Toxin B-subunit [CTB] here?
A: Its Kd is ~41 nM and ~60 nM.

Q: What about the “Ei (effective interaction energy)” value [2] of the same substance?
A: The value was 2.52 ± 0.09.

Q: What about the “detection signal / binding in selectivity series” value [2] of the same substance?
A: The value was “Negative signals; also recorded: absence of binding”.

Q: And the “Ei (effective interaction energy)” value (GM1 [3])?
A: The value was 0.56 ± 0.12.

Q: And the “colloidal phase response” value (GM1 [3])?
A: The value was “triggered the transition to a dispersed phase; also recorded: induces the transition”.

Q: What about the “detection signal / binding in selectivity series” value (GM1 [3]) of the same substance?
A: The value was “positive signal; also recorded: detected binding”.

Q: And the “first peak in the g(r) plot” value (GM1 [3])?
A: Its value is “noticeably absent”.

Q: And the “Ei (effective interaction energy)” value (GTIB [4])?
A: The value was 2.47 ± 0.09.

Q: What about the “colloidal phase response” value (GTIB [4]) of the same substance?
A: The value was “without producing any effect; also recorded: no effect”.

Q: What does the source list for α-Bungarotoxin [BT]?
A: Ei (effective interaction energy) [2]: 2.67 ± 0.10; detection signal / binding in selectivity series [2]: Negative signals; Ei (effective interaction energy) (GM1 [3]): 2.84 ± 0.02; colloidal phase response (condensed to dispersed transition) (GM1 [3]): no effect; Ei (effective interaction energy) (GTIB [4]): 2.71 ± 0.08; colloidal phase response (condensed to dispersed transition) (GTIB [4]): no effect
